# According to patent US20230203560A1, “GLUCOSYL ESTERS FOR INFECTION SCREENING” (Board of Regents, The University of Texas System, priority 2020, published 2023):
# How the values were obtained:
# [1] = system: leukocyte esterase (LE); assay: Electrochemical LE assay in human synovial fluid: glucose released from glucosyl ester, read on glucose test strip with potentiostat; assay type: biochemical; details: human synovial fluid spiked with LE; 5.5 mM ester
# Protocol: (§1) The human leukocyte suspension in 154 mM NaCl solution (cat. No. MBS173116, 0.0867 mg mL^−1 leukocyte esterase (LE) protein, 4×10^8 WBC mL^−1) was purchased from MyBioSource (San Diego, Calif.). The suspension was diluted 10 times with a 90:10 vol. % mixture of 50 mM phosphate buffer saline (PBS, pH 7.40, 154 mM NaCl) solution and dimethylsulfoxide, left for 10 min to lyse the leukocytes chemically, sonicated for 30 s with a Q125 Qsonica probe (20% power) to further lyse them mechanically, and centrifuged at 15 000×g for 30 min. The resulting supernatant that contained LE was stored at −20° C.
# The human synovial fluid (DLS0092658) was purchased from Discovery Life Sciences (Los Osos, Calif.) and stored at −70° C. when not in use. […]
# The 0.15 V potential was applied to a glucose strip, which was then contacted at time t=0 s with a small drop of sample (˜10 μL) that was placed on a Petri dish (FIG. 2). […] Two charges were always determined: Q(ester) for a sample incubated with 5.5 mM ester for 5 min, and Q(no ester) for an original sample without ester. […]
# The samples were incubated with each ester to release glucose in the direct proportion to the enzymatic activity of LE in a sample. The released glucose was then detected at a commercial glucose test strip. A laboratory potentiostat was used to read the glucose strip. […]
# [2] = system: leukocyte esterase (LE); assay: Electrochemical LE assay in human urine: glucose released from glucosyl ester, read on glucose test strip with potentiostat; assay type: biochemical; details: for sample incubation time with ester to yield enough glucose to be above the detection limit of the potentiostat/glucose strip system: human urine spiked with LE, 5.5 mM ester, glucose detection limit 5 μM
# Protocol: as §1
# The human synovial fluid (DLS0092658) was purchased from Discovery Life Sciences (Los Osos, Calif.) and stored at −70° C. when not in use. The clean-catch midstream portion of human urine (˜15.0 mL) was collected early in the morning in a 50.0-mL sterile centrifuge tube (Fisher Scientific, Pittsburgh, Pa.) centrifuged at 600×g for 5 min, and the supernatant was stored at −20° C. The synovial fluid and urine were spiked with known amount of LE before the analysis.
# Electrochemical Measurements. The glucose strip was inserted into an electronic holder (DropSens, Llanera, Spain), which was then connected to a CHE 832B potentiostat (other potentiostats could also be used). The strip was used in a 2-electrode mode with the counter and reference electrodes connected together as a single cathode and a working electrode serving as an anode (the strip's fill-detector electrode was not used). The potential applied to a working electrode was equal to 0.15 V vs. strip's reference/counter electrode.
# The 0.15 V potential was applied to a glucose strip, which was then contacted at time t=0 s with a small drop of sample (˜10 μL) that was placed on a Petri dish (FIG. 2). The amperogram obtained in such a way was integrated between t=2 and t=22 s to determine the charge Q flowing through the strip. Two charges were always determined: Q(ester) for a sample incubated with 5.5 mM ester for 5 min, and Q(no ester) for an original sample without ester. The difference in charge ΔQ [=Q(ester)−Q(no ester)] was proportional to the enzymatic activity of LE in a sample.
# The samples were incubated with each ester to release glucose in the direct proportion to the enzymatic activity of LE in a sample. The released glucose was then detected at a commercial glucose test strip. A laboratory potentiostat was used to read the glucose strip. The strip was inserted in an electronic holder to facilitate the measurements (FIG. 2). Such a strip-potentiostat measuring system provided a much lower limit of glucose detection (5.0 μM, S/N=3; FIG. 3A) and a linear range at least up to 100 μM glucose (FIG. 3B), which allowed for a much shorter (minutes) incubation times (FIG. 4).
Structure (SMILES),sample incubation time with ester before reading the glucose strip [1],sample incubation time with ester to yield enough glucose to be above the detection limit of the potentiostat/glucose strip system [2],"kinetics of the enzymatic reaction of LE with the ester, compared to ester α ([2]; ascribed from longer incubation time and lower calibration slope)","calibration slope (ΔQ vs LE concentration) lower than with ester α ([2]; human urine, ester γ 10 min vs ester α 5 min incubation (FIG. 8))"
"Cc1ccc(S(=O)(=O)N[C@@H](C)C(=O)OCCCC(=O)O[C@@H]2O[C@H](CO)[C@@H](O)[C@H](O)[C@H]2O)cc1 [ester α, (2S,3R,4S,5S,6R)-3,4,5-trihydroxy-6-(hydroxymethyl)oxan-2-yl 4-{[(2S)-2-(4-methylbenzenesulfonamido)propanoyl]oxy}butanoate]",5 min,5 min,,
"Cc1ccc(S(=O)(=O)N[C@@H](C)C(=O)OCCNC(=O)O[C@H]2O[C@H](CO)[C@@H](O)[C@H](O)[C@H]2O)cc1 [ester γ, 2-[({[(2R,3R,4S,5S,6R)-3,4,5-trihydroxy-6-(hydroxymethyl)oxan-2-yl]oxy}carbonyl)amino]ethyl (2S)-2-(4-methylbenzenesulfonamido)propanoate]",,10 min,slower kinetics,~10%
